Legend:
Format in all cases: biochemical
human mu opioid receptor = molecular target: T1, human mu opioid receptor (Homo sapiens, UniProt P35372); assay: [35S]GTP-γ-S binding stimulation, intrinsic activity at mu receptor; details: for intrinsic activity at the mu opioid receptor (in words): compared with DAMGO
T1 construct: expressed in transfected cells; host or cells: CHO cells (membrane homogenates)
Experimental: (§1) Determination of intrinsic activity. Test compounds 2.8 and 2.11 were assayed for their ability to stimulate [35S]GTP-γ-S binding in CHO cell membrane homogenates expressing either the human mu or human delta opioid receptor. The compounds were assayed in triplicate at eight different concentrations. […] The membranes were incubated with one of eight concentrations of positive control or test compound, 0.1 nM [35S]GTP-γ-S and 10 μM GDP in a 50 mM HEPES buffer (pH 7.4) at room temperature for one hour, after which bound radioligand was separated from free via rapid vacuum filtration over GF-B filters using a Brandel Scientific (Gaithersburg, MD) 96-well harvester. Bound radioactivity was determined using a TopCount 12-detector instrument (Packard Instruments) using standard scintillation counting techniques. The data were normalized to samples containing vehicle (basal binding), and a three-parameter logistic curve fit to the data using Prism (version 3.0, GraphPad Software, Inc., San Diego, Calif.). The EC50 and upper asymptote (Emax) were calculated for each compound and the data reported as mean ±SEM.

[1] = molecular target: T2, human kappa opioid receptor (Homo sapiens, UniProt P41145); assay: Apparent affinity (Ke): shift of U69,593 dose response curve in [35S]GTP-γ-S binding
T2 construct: expressed in transfected cells; host or cells: CHO cells (membrane homogenates)
T2 sequence (P41145 whole entry): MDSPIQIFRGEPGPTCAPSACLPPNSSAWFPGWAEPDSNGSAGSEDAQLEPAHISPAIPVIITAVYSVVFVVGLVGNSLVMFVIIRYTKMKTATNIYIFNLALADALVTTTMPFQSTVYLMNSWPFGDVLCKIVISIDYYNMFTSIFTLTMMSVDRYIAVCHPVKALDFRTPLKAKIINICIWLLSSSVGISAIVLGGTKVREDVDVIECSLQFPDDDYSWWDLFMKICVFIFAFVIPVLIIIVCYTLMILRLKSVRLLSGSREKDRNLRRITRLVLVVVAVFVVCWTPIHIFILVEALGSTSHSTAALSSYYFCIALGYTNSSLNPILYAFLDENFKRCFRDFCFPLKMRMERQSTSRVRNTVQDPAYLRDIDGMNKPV
From the text: Determination of apparent affinity (Ke). The ability of a single concentration of test compound to shift the U69,593 (full kappa opioid receptor agonist) dose response curve to the right was used to determine the apparent affinity (Ke) of the test compounds. Assay conditions and analysis of the data were identical to that detailed for the determination of intrinsic activity except that membrane homogenates from CHO cells expressing the human kappa opioid receptor were used, and a single, identical concentration of test compound was included with each assayed concentration of kappa agonist. […]

[2] = molecular target: T3, human delta opioid receptor (Homo sapiens, UniProt P41143); assay: [35S]GTP-γ-S binding stimulation, intrinsic activity at delta receptor; details: for intrinsic activity at the delta opioid receptor (in words): compared with DPDPE; for Emax: read-out: Agonist δ Emax (% DPDPE)
T3 construct: expressed in transfected cells; host or cells: CHO cells (membrane homogenates)
T3 sequence (P41143 whole entry): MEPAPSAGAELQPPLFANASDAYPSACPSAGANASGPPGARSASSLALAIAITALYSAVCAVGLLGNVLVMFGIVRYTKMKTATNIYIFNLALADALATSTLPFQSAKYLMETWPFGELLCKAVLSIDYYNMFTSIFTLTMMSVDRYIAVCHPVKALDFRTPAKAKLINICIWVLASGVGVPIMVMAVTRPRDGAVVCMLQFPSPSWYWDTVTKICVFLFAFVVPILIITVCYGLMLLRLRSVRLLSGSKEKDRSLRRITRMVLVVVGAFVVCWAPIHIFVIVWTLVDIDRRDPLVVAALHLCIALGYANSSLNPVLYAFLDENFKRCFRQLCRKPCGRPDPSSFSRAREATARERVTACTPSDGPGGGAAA
Experimental: as §1

T1 sequence (P35372 whole entry): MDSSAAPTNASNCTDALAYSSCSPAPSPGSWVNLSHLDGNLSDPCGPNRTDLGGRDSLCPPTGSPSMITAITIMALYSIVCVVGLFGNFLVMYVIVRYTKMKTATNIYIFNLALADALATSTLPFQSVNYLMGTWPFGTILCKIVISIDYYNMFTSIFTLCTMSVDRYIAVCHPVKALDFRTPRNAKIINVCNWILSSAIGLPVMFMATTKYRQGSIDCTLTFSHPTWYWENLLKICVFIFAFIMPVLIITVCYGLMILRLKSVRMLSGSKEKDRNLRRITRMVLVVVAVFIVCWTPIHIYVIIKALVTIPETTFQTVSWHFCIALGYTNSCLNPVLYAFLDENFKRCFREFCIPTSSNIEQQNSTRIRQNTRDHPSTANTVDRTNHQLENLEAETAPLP

| Compound | intrinsic activity at the mu opioid receptor (in words) (human mu opioid receptor) | Emax (human mu opioid receptor; relative to Emax of DAMGO, mean ±SEM, read-out: Agonist μ Emax (% DAMGO)) [%] | activity at the kappa opioid receptor (in words) [1] | intrinsic activity at the delta opioid receptor (in words) [2] | Emax [2] [%] | maximum stimulation of [35S]GTP-γ-S binding compared with DAMGO (t-test) (human mu opioid receptor; p>0.05) |
| --- | --- | --- | --- | --- | --- | --- |
| C[C@@H](NC(=O)[C@@H](N)Cc1ccc(O)cc1)C(=O)NCC(=O)N(C)[C@@H](Cc1ccccc1)C(=O)NCCO [DAMGO, (D-Ala^2,MePhe^4,Gly-ol^5)enkephalin, reference compound] | full agonist | – | – | – | – | – |
| C[C@@H]1CN(CCCc2ccccc2)[C@H]2C[C@H](N)C[C@]1(c1cccc(O)c1)C2 [Compound 2.8, (−)-3-[(1 R,4S,5S,7R)-7-Amino-4-methyl-2-(3-phenylpropyl)-2-aza-bicyclo[3.3.1]non-5-yl]phenol] | partial agonist | 74 ± 12 | good inhibitor | potent full agonist | 101 ± 14 | – |
| CNC1CC2CC(c3cccc(O)c3)(C1)C(C)CN2CCCc1ccccc1 (centres unmarked) [Compound 2.11, 5-(3-Hydroxyphenyl)-4-methyl-7-methylamino-2-(3-phenylprop-1-yl)-2-azabicyclo[3.3.1]nononane] | full agonist | – | good inhibitor | partial agonist | 79.7 ± 7.7 | not statistically different |
